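Compound exposure: 48 hours, 5 concentrations, 96-well plates. GI50 marks 50% less growth.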 The source made the active and inactive calls. Cut-off read from the data, not from the text of the source: active = GI50 up to about 1.1 µM and inactive = higher.
What was measured:
Assay in all cases: inhibition of tumour cell growth, NCI panel, 48 h
SK-MEL-5 = tested on: SK-MEL-5
Malme-3M = tested on: Malme-3M
A498 = tested on: A498
SK-MEL-2 = tested on: SK-MEL-2
NCI-H522 = tested on: NCI-H522
SNB-19 = tested on: SNB-19
U-251 = tested on: U-251
K562 = tested on: K562
M14 = tested on: M14
UACC-257 = tested on: UACC-257
CCRF-CEM = tested on: CCRF-CEM
XF498 = tested on: XF498
KM12 = tested on: KM12
LXFL 529 = tested on: LXFL 529
SF-539 = tested on: SF-539
RXF 393 = tested on: RXF 393
SF-295 = tested on: SF-295
DMS-114 = tested on: DMS-114
DMS-273 = tested on: DMS-273
RPMI-8226 = tested on: RPMI-8226
OVCAR-5 = tested on: OVCAR-5
HL-60 = tested on: HL-60
IGROV-1 = tested on: IGROV-1
OVCAR-8 = tested on: OVCAR-8
A549 = tested on: A549
OVCAR-4 = tested on: OVCAR-4
KM-20L2 = tested on: KM-20L2
HCC 2998 = tested on: HCC 2998
MOLT-4 = tested on: MOLT-4
CAKI-1 = tested on: CAKI-1
SNB-75 = tested on: SNB-75
NCI-H23 = tested on: NCI-H23
ACHN = tested on: ACHN
UO-31 = tested on: UO-31
SW-620 = tested on: SW-620
SK-OV-3 = tested on: SK-OV-3
SF-268 = tested on: SF-268
UACC-62 = tested on: UACC-62
RXF 631 = tested on: RXF 631
EKVX = tested on: EKVX
TK-10 = tested on: TK-10
SNB-78 = tested on: SNB-78
SK-MEL-28 = tested on: SK-MEL-28
HCT-15 = tested on: HCT-15
COLO 205 = tested on: COLO 205
HOP-18 = tested on: HOP-18
LOX IMVI = tested on: LOX IMVI
HT-29 = tested on: HT-29
SN12C = tested on: SN12C
HOP-92 = tested on: HOP-92
M19-MEL = tested on: M19-MEL
OVCAR-3 = tested on: OVCAR-3
NCI-H460 = tested on: NCI-H460
NCI-H226 = tested on: NCI-H226
HCT-116 = tested on: HCT-116

With `O=C(NN1C(=O)CSC1c1cccc(F)c1)c1ccncc1` (centres undefined) the GI50 (SK-MEL-5) was > 100 µM (inactive), the GI50 (Malme-3M) was > 100 µM (inactive) and the GI50 (A498) was > 100 µM (inactive). For the same compound, the GI50 (SK-MEL-2) was > 100 µM (inactive), the GI50 (NCI-H522) was > 100 µM (inactive) and the GI50 (SNB-19) was > 100 µM (inactive). The GI50 (U-251) was > 100 µM (inactive), the GI50 (K562) was > 100 µM (inactive) and the GI50 (M14) was > 100 µM (inactive). For the same compound, the GI50 (UACC-257) was > 100 µM (inactive), the GI50 (CCRF-CEM) was > 100 µM (inactive) and the GI50 (XF498) was > 100 µM (inactive). For the same compound, the GI50 (KM12) was > 100 µM (inactive), the GI50 (LXFL 529) was > 100 µM (inactive) and the GI50 (SF-539) was > 100 µM (inactive). The GI50 (RXF 393) was > 100 µM (inactive), the GI50 (SF-295) was > 100 µM (inactive) and the GI50 (DMS-114) was > 100 µM (inactive). For the same compound, the GI50 (DMS-273) was > 100 µM (inactive), the GI50 (RPMI-8226) was > 100 µM (inactive) and the GI50 (OVCAR-5) was > 100 µM (inactive). For the same compound, the GI50 (HL-60) was > 100 µM (inactive), the GI50 (IGROV-1) was > 100 µM (inactive) and the GI50 (OVCAR-8) was > 100 µM (inactive). The GI50 (A549) was > 100 µM (inactive), the GI50 (OVCAR-4) was > 100 µM (inactive) and the GI50 (KM-20L2) was > 100 µM (inactive). The GI50 (HCC 2998) was > 100 µM (inactive), the GI50 (MOLT-4) was > 100 µM (inactive) and the GI50 (CAKI-1) was > 100 µM (inactive). The GI50 (SNB-75) was > 100 µM (inactive), the GI50 (NCI-H23) was > 100 µM (inactive) and the GI50 (ACHN) was > 100 µM (inactive). For the same compound, the GI50 (UO-31) was > 100 µM (inactive), the GI50 (SW-620) was > 100 µM (inactive) and the GI50 (SK-OV-3) was > 100 µM (inactive). The GI50 (SF-268) was > 100 µM (inactive), the GI50 (UACC-62) was > 100 µM (inactive) and the GI50 (RXF 631) was > 100 µM (inactive). The GI50 (EKVX) was > 100 µM (inactive), the GI50 (TK-10) was > 100 µM (inactive) and the GI50 (SNB-78) was > 100 µM (inactive). For the same compound, the GI50 (SK-MEL-28) was > 100 µM (inactive), the GI50 (HCT-15) was > 100 µM and the GI50 (COLO 205) was > 100 µM (inactive). For the same compound, the GI50 (HOP-18) was < 0.01 µM (active), the GI50 (LOX IMVI) was > 100 µM (inactive) and the GI50 (HT-29) was > 100 µM (inactive). The GI50 (SN12C) was > 100 µM (inactive).
With `O=C1CCC(NC(=O)Cc2ccc(O)cc2)C(=O)N1` (centres undefined) the GI50 (SK-MEL-5) was > 2500 µM (inactive), the GI50 (A498) was > 2500 µM (inactive) and the GI50 (NCI-H522) was > 2500 µM (inactive). For the same compound, the GI50 (SNB-19) was > 2500 µM (inactive), the GI50 (U-251) was > 2500 µM (inactive) and the GI50 (M14) was > 2500 µM (inactive). For the same compound, the GI50 (UACC-257) was > 2500 µM (inactive), the GI50 (XF498) was > 2500 µM (inactive) and the GI50 (HOP-92) was > 2500 µM (inactive). The GI50 (M19-MEL) was > 2500 µM (inactive), the GI50 (KM12) was > 2500 µM (inactive) and the GI50 (LXFL 529) was > 2500 µM (inactive). The GI50 (OVCAR-3) was > 2500 µM (inactive), the GI50 (SF-295) was > 2500 µM (inactive) and the GI50 (DMS-114) was > 2500 µM (inactive). The GI50 (DMS-273) was > 2500 µM (inactive), the GI50 (OVCAR-5) was > 2500 µM (inactive) and the GI50 (IGROV-1) was > 2500 µM (inactive). The GI50 (OVCAR-8) was > 2500 µM (inactive), the GI50 (A549) was > 2500 µM (inactive) and the GI50 (OVCAR-4) was > 2500 µM (inactive). For the same compound, the GI50 (NCI-H460) was > 2500 µM (inactive), the GI50 (KM-20L2) was > 2500 µM (inactive) and the GI50 (CAKI-1) was > 2500 µM (inactive). The GI50 (SNB-75) was 589 µM (inactive), the GI50 (NCI-H23) was > 2500 µM (inactive) and the GI50 (ACHN) was > 2500 µM (inactive). For the same compound, the GI50 (UO-31) was > 2500 µM (inactive), the GI50 (SW-620) was > 2500 µM (inactive) and the GI50 (SK-OV-3) was 1020 µM (inactive). For the same compound, the GI50 (SF-268) was > 2500 µM (inactive), the GI50 (UACC-62) was > 2500 µM (inactive) and the GI50 (NCI-H226) was > 2500 µM (inactive). The GI50 (RXF 631) was > 2500 µM (inactive), the GI50 (EKVX) was > 2500 µM (inactive) and the GI50 (TK-10) was > 2500 µM (inactive). For the same compound, the GI50 (SNB-78) was > 2500 µM (inactive), the GI50 (SK-MEL-28) was > 2500 µM (inactive) and the GI50 (HCT-15) was > 2500 µM. The GI50 (HCT-116) was > 2500 µM (inactive), the GI50 (COLO 205) was > 2500 µM (inactive) and the GI50 (HOP-18) was > 2500 µM (inactive). For the same compound, the GI50 (LOX IMVI) was > 2500 µM (inactive), the GI50 (HT-29) was > 2500 µM (inactive) and the GI50 (SN12C) was > 2500 µM (inactive).
